From the NIST ThermoML archive (doi:10.1021/acs.jced.7b01030)
Where “and” joins values, the source holds several entries; their conditions need not be identical. Equal values may be shown once.

Details: Liquid; for mass density: Vibrating tube method; for viscosity: Falling or rolling sphere viscometry; for self diffusion coefficient: NMR spin-echo technique

OCC(F)(F)F [2,2,2-trifluoroethanol]
Details	mass density [kg/m3]	self diffusion coefficient	viscosity
303.15 K, 100 kPa	1374.17	–	–
308.15 K, 100 kPa	–	–	1.384 mPa·s
308.28 K, 100 kPa	–	9.35e-10 m2/s	–
313.15 K, 100 kPa	1356.64	–	1.219 mPa·s and 1.221 mPa·s
318.15 K, 100 kPa	–	–	1.081 mPa·s and 1.078 mPa·s
318.17 K, 100 kPa	–	1.24e-09 m2/s and 1.22e-09 m2/s	–
322.14 K, 10500 kPa	–	–	1.125 mPa·s and 1.128 mPa·s
322.14 K, 25500 kPa	–	–	1.286 mPa·s
322.14 K, 50500 kPa	–	–	1.561 mPa·s
322.14 K, 75000 kPa	–	–	1.827 mPa·s
322.14 K, 75200 kPa	–	–	1.828 mPa·s
322.14 K, 100300 kPa	–	–	2.137 mPa·s
323.15 K, 100 kPa	1338.58	–	0.989 mPa·s [middle of 9 runs]
323.15 K, 10000 kPa	–	–	1.091 mPa·s
323.15 K, 10100 kPa	–	–	1.09 mPa·s
323.15 K, 25300 kPa	–	–	1.246 mPa·s
323.15 K, 25400 kPa	–	–	1.248 mPa·s
323.15 K, 49500 kPa	–	–	1.492 mPa·s
323.15 K, 49700 kPa	–	–	1.493 mPa·s
323.15 K, 74800 kPa	–	–	1.781 mPa·s
323.15 K, 75000 kPa	–	–	1.789 mPa·s
323.15 K, 99900 kPa	–	–	2.075 mPa·s
323.15 K, 100000 kPa	–	–	2.073 mPa·s
323.15 K, 100400 kPa	–	–	2.096 mPa·s and 2.093 mPa·s
323.15 K, 125000 kPa	–	–	2.396 mPa·s
323.15 K, 125400 kPa	–	–	2.395 mPa·s
323.15 K, 150100 kPa	–	–	2.737 mPa·s
323.15 K, 150500 kPa	–	–	2.738 mPa·s
323.15 K, 176000 kPa	–	–	3.131 mPa·s
323.15 K, 200300 kPa	–	–	3.654 mPa·s
323.15 K, 200800 kPa	–	–	3.651 mPa·s
323.15 K, 210100 kPa	–	–	3.837 mPa·s and 3.849 mPa·s
323.15 K, 225200 kPa	–	–	4.134 mPa·s
323.15 K, 225300 kPa	–	–	4.131 mPa·s
323.15 K, 226700 kPa	–	–	4.028 mPa·s
323.15 K, 227900 kPa	–	–	4.058 mPa·s
323.15 K, 248900 kPa	–	–	4.6 mPa·s
323.15 K, 249400 kPa	–	–	4.614 mPa·s
323.15 K, 275300 kPa	–	–	5.192 mPa·s
323.15 K, 275600 kPa	–	–	5.209 mPa·s
323.15 K, 300600 kPa	–	–	5.834 mPa·s
323.15 K, 301200 kPa	–	–	5.853 mPa·s
323.15 K, 325600 kPa	–	–	6.509 mPa·s
323.15 K, 326200 kPa	–	–	6.562 mPa·s
323.15 K, 347900 kPa	–	–	7.187 mPa·s
323.15 K, 349200 kPa	–	–	7.207 mPa·s
323.4 K, 100 kPa	–	1.45e-09 m2/s	–
323.5 K, 100 kPa	–	1.39e-09 m2/s	–
323.51 K, 100 kPa	–	1.42e-09 m2/s	–
323.51 K, 23000 kPa	–	1.21e-09 m2/s	–
323.51 K, 50000 kPa	–	1.01e-09 m2/s	–
323.51 K, 74000 kPa	–	8.73e-10 m2/s	–
323.51 K, 99500 kPa	–	7.59e-10 m2/s	–
323.51 K, 300000 kPa	–	3.12e-10 m2/s	–
323.52 K, 150000 kPa	–	5.97e-10 m2/s	–
323.52 K, 198500 kPa	–	4.81e-10 m2/s	–
323.52 K, 249000 kPa	–	3.9e-10 m2/s	–
323.53 K, 351000 kPa	–	2.57e-10 m2/s	–
328.15 K, 100 kPa	–	–	0.8939 mPa·s and 0.8974 mPa·s
328.35 K, 100 kPa	–	1.63e-09 m2/s	–
333.15 K, 100 kPa	1319.81	–	0.8117 mPa·s
338.15 K, 100 kPa	1310.14	–	0.7379 mPa·s and 0.7382 mPa·s
338.44 K, 100 kPa	–	1.95e-09 m2/s	–
342.8 K, 100 kPa	–	2.21e-09 m2/s	–
343.15 K, 100 kPa	1300.26	–	0.671 mPa·s [middle of 5 runs]
343.15 K, 10500 kPa	–	–	0.7504 mPa·s and 0.7498 mPa·s
343.15 K, 25500 kPa	–	–	0.8438 mPa·s
343.15 K, 50000 kPa	–	–	1.016 mPa·s
343.15 K, 76400 kPa	–	–	1.229 mPa·s and 1.228 mPa·s
343.15 K, 99900 kPa	–	–	1.425 mPa·s
343.15 K, 100500 kPa	–	–	1.411 mPa·s
343.15 K, 100700 kPa	–	–	1.419 mPa·s and 1.416 mPa·s
343.15 K, 100900 kPa	–	–	1.421 mPa·s
343.15 K, 125800 kPa	–	–	1.666 mPa·s
343.15 K, 126100 kPa	–	–	1.66 mPa·s
343.15 K, 150000 kPa	–	–	1.894 mPa·s
343.15 K, 150200 kPa	–	–	1.899 mPa·s
343.15 K, 175300 kPa	–	–	2.141 mPa·s
343.15 K, 175600 kPa	–	–	2.149 mPa·s
343.15 K, 200400 kPa	–	–	2.397 mPa·s
343.15 K, 200700 kPa	–	–	2.409 mPa·s
343.15 K, 225200 kPa	–	–	2.644 mPa·s
343.15 K, 225400 kPa	–	–	2.672 mPa·s
343.15 K, 249500 kPa	–	–	2.924 mPa·s
343.15 K, 249800 kPa	–	–	2.935 mPa·s
343.15 K, 276600 kPa	–	–	3.259 mPa·s
343.15 K, 277100 kPa	–	–	3.277 mPa·s
343.15 K, 300300 kPa	–	–	3.57 mPa·s
343.15 K, 301200 kPa	–	–	3.596 mPa·s
343.15 K, 325100 kPa	–	–	3.91 mPa·s
343.15 K, 325600 kPa	–	–	3.939 mPa·s
343.15 K, 350100 kPa	–	–	4.306 mPa·s
343.15 K, 352100 kPa	–	–	4.376 mPa·s
348.02 K, 152000 kPa	–	1.06e-09 m2/s	–
348.06 K, 25000 kPa	–	2.11e-09 m2/s	–
348.06 K, 101000 kPa	–	1.35e-09 m2/s	–
348.07 K, 100 kPa	–	2.57e-09 m2/s	–
348.07 K, 50500 kPa	–	1.79e-09 m2/s	–
348.07 K, 74500 kPa	–	1.57e-09 m2/s	–
348.07 K, 348000 kPa	–	5.2e-10 m2/s	–
348.08 K, 175000 kPa	–	9.55e-10 m2/s	–
348.08 K, 200000 kPa	–	8.68e-10 m2/s	–
348.08 K, 249500 kPa	–	7.32e-10 m2/s	–
348.08 K, 299000 kPa	–	6.15e-10 m2/s	–
348.08 K, 350000 kPa	–	5.16e-10 m2/s	–
